“Also recorded” adds a separate entry of the source.

Data on one compound can be found in patent US20110251135A1, “INHIBITORS OF PERITONEAL SEEDING OF CANCER CELLS” (University of Utah Research Foundation, priority 2008, published 2011).

One test deals with HT-29 cells. Put plainly: One-hour cell adhesion assay (crystal violet). The format is cell-based, human. Conditions: adherent HT-29 pretreated for three days with various concentrations, then one-hour adhesion assay. The source says: (§1) FIG. 3 is a group of graphs that show NF-κB inhibitors cause apoptosis of colon cancer cells. […] The data points represent the average percent of annexin V-positive, propidium iodide-negative cells (of the total cells counted) from triplicate experiments. The error bars represent the standard error of the means. […] The results shown are a graphic representation of individual flow cytometry results expressed as the percentage of cells that were annexin V-positive of those that excluded propidium iodide. […] An immunoblot of the lysates for cleaved PARP was performed. Each lane represents equal total protein concentrations. […] The cells were allowed to adhere to plastic dishes for 1 hour after which they were washed gently in PBS and stained with crystal violet. The crystal violet stained cells were solubilized in deoxycholate and the absorbance detected in a spectrophotometer at 590 nm. The adherent cells were expressed as a fraction of the controls. Each data point represents the average of triplicate experiments and the error bars the standard errors of the means.
Even though BAY 11-7085 induced a loss of cell adhesion, it was important to show whether HT-29 cells were actually susceptible to anoikis.

The next test relates to JNK/SAPK and p38. Conditions: Pierce et al., J Biol Chem 272:21096-103, 1997; cited from earlier work.
The subject of a further test is adherent HT-29 cells. Put plainly: Annexin V-FITC apoptosis assay, adherent cells. The format is cell-based, human.
Text: as §1
The data points represent the means of triplicate experiments and the error bars the standard errors of the means. […] The percent of apoptotic cells was then determined by the annexin V assay. […] The results shown are typical of two separate experiments. […] Immunoblots were performed for c-IAP-2, TRAF-1, TRAF-2, and FLIP. All lanes contain equal total protein.
Single cell suspensions were plated at 100,000 cells per well in 24-well plates in media containing DMSO, BAY 11-7082, BAY 11-7085, or MG-132 for 8-24 hours in an incubator. Alternatively, DMSO, BAY 11-7082, BAY 11-7085, or MG-132 were added to cells that were confluent and adherent for several days. The nonadherent cells were aspirated off with the media and spun for 3 minutes at 2,000 rpm in 15 mL polypropylene tubes. The adherent cells were washed twice with PBS, dispersed in trypsin, and spun down for 3 minutes at 2,000 rpm in 15 mL polypropylene tubes. The nonadherent and adherent cells were resuspended in 1× binding buffer (10 mM HEPES/NaOH, pH 7.4, 140 mM NaCl, and 2.5 mM CaCl2) to a final concentration of 10^6 cells/mL. 100 μL of the cell solution were transferred to a 5 mL culture tube and incubated with 5 μL of annexin V-FITC-conjugated monoclonal antibody (Pharmingen) and 10 μl, of propidium iodide (from a 50 μg/mL stock solution made in PBS) in the dark at 25° C. for 15 minutes. 400 μL of binding buffer was added to each tube and the cells were analyzed by flow cytometry immediately. The percent of apoptosis was determined as the percent of annexin V-positive, propidium iodide-negative cells of the total cells counted.

For test [1], the system named is transiently suspended HCT-116 cells. The test is described as follows: Apoptosis of transiently suspended cells during readhesion (annexin V assay). The format is cell-based, human. As to conditions: HCT-116 transiently suspended, treated and allowed to readhere; 8 hours. The method, then:
(§2) The transiently suspended cells were lysed and allowed to bind to DNA oligonucleotides, containing the NF-κB consensus binding site, that were immobilized to 96-well plates. NF-κB protein bound to the oligonucleotides was detected by an antibody to the p65 subunit that only recognized p65 that is bound to DNA. The positive control was HeLa cells that were stimulated with TNFα. A control was performed using excess free NF-κB oligonucleotides (Competitor). […] NF-κB binding activity was determined by the TransAM assay as in FIG. 5A. […] The data shown represent typical results of three separate experiments. […] An immunoblot for COX-2 was performed.
(§3) Single cell suspensions were plated at 100,000 cells per well in 24-well plates in media containing DMSO, BAY 11-7082, BAY 11-7085, or MG-132 for 8-24 hours in an incubator. Alternatively, DMSO, BAY 11-7082, BAY 11-7085, or MG-132 were added to cells that were confluent and adherent for several days. The nonadherent cells were aspirated off with the media and spun for 3 minutes at 2,000 rpm in 15 mL polypropylene tubes. […] 400 μL of binding buffer was added to each tube and the cells were analyzed by flow cytometry immediately. The percent of apoptosis was determined as the percent of annexin V-positive, propidium iodide-negative cells of the total cells counted. […]

Test [2] deals with transiently suspended DLD-1 cells. The test is described as above. The format is cell-based, human. Conditions: DLD-1 transiently suspended, treated and allowed to readhere; 8 hours. The procedure: as §2, §3
Test [3] relates to pancreatic (Su.86, PL-45) and colon cancer cells (HT-29). Put plainly: Cleaved PARP western blot during readhesion. The test is classed as cell-based, human. Conditions: 10-20 μM BAY 11-7085; 8 hours. The method, then:
FIG. 10 is a graph showing that BAY 11-7085 induces apoptosis of pancreatic and colon cancer cells during readhesion. Pancreatic (Su.86, PL-45) and colon cancer cells (HT-29) were transiently suspended and allowed to readhere in the presence or absence of vehicle or various concentrations of BAY 11-7085 for 8 hours. The floating and adherent cells were collected and lysed. Western blots for cleaved PARP were performed to determine if the cells were undergoing apoptosis (FIG. 10A). Transiently suspended pancreatic cancer cells ([…] per well) were allowed to readhere in the presence of vehicle or various concentrations of BAY 11-7085 for 24 hours. Nonadherent apoptotic cells were washed away and the remaining adherent cells stained with crystal violet and then dried. The crystal violet stained cells were lysed and the absorbance read in a plate spectrophotometer (FIG. 10B). […] The results are expressed as a percentage of cells surviving compared with vehicle alone.
BxPc-3, PL-45, Su.86.86 and HT-29 cells were transiently suspended and treated in vitro with varying concentrations of BAY 11-7085 or DMSO for four to eight hours. […] The degree of apoptosis was determined by western blotting for cleaved PARP.

With `CC(C)(C)c1ccc(S(=O)(=O)/C=C/C#N)cc1` [BAY 11-7085, (2E)-3-[4-(tertiarybutylphenyl)sulfonyl]-2-propenenitrile], in the test with HT-29 cells, the cell adhesion entry was “significant and rapid inhibition of cell adhesion at high concentrations”. Moreover, the “activation of JNK/SAPK and p38” value in the test with JNK/SAPK and p38 was “activate JNK/SAPK and p38”. Further, the “apoptotic cells among cells that remained adherent” value with adherent HT-29 cells (HT-29 treated with increasing concentrations of BAY 11-7085, adherent fraction) is given as “only a minority of the adherent cells was apoptotic”. Also, in the test on adherent HT-29 cells (HT-29 treated with increasing concentrations of BAY 11-7085, nonadherent fraction), the “apoptotic cells among cells that became nonadherent” value is recorded as “the majority of nonadherent cells were apoptotic; also recorded: predominantly apoptotic”. The “level of apoptosis (annexin V-positive, propidium iodide-negative cells)” value with adherent HT-29 cells (adherent HT-29, 24 hours, BAY compounds at doses up to 20, MG-132 20 μM) was “relatively greater for MG-132 than BAY 11-7085; also recorded: caused an increase in the level of apoptosis”. For the same compound, the “apoptosis of adherent HT-29 cell monolayers” value in the test with adherent HT-29 cells (even the highest doses (10-100 μM), compared with transiently suspended cells) is “only a relatively small degree of apoptosis”. Besides, the “BAY 11-7085-induced apoptosis during readhesion” value in test [1] was “HCT-116 cells did not”; in test [2] it was “showed the same propensity for BAY 11-7085-induced apoptosis”. Also, the “apoptosis (cleaved PARP levels) during cell readhesion” value in test [3] is listed as “increased apoptosis (cleaved PARP levels)”.
